Measurements from patent US20080248008A1, “Inhibitors of Protein Kinase a Anchoring” (priority 2004, published 2008).

Legend:
[1] = molecular target: T1, RII (Homo sapiens, UniProt P13861); assay: Co-immunoprecipitation with RII in transfected HEK293 cells; assay type: cell-based; settings: HEK293 cells transfected with GFP-fusion constructs
T1 construct: endogenous in cells; host or cells: HEK293
Method: HEK293 cells at […] were transfected with ten μg of plasmid DNA (GFP, GFP-MEME3 or GFP-Scrambled MEME3) by using the CaCl2 method. Cells were lysed after 30 hours in lysis buffer (20 mM Hepes, pH 7.5/150 mM NaCl/1 mM EDTA/1% Triton X-100) with protease inhibitors (Complete Mini, EDTA-free tablets, Roche).
Immunoblot analysis. Immunocomplexes and lipid raft fractions were analysed on a 10, 15% or 4-20% PAGE and blotted onto PVDF membranes. The filters were blocked in 5% non-fat dry milk in TBST for 30 minutes at RT, incubated 1 hour at RT (or overnight at 4° C.) with primary antibodies, washed four times 5 minutes in TBST with 0.1% Tween-20 and incubated with a horseradish-peroxidase-conjugated secondary antibody. Blots were developed by using Supersignal West Dura Extended Duration Substrate or Supersignal West Pico substrate (Pierce).
Antibodies. RI or RII were immunoprecipitated with polyclonal antibodies against human RI or human RII at a 3 μg/ml dilution (Santa Cruz Biotechnology). MEME3 or scrambled peptide was immunoprecipitated with 1.5 μl of anti-GFP antiserum (Invitrogen). […]
Immunocomplexes were analysed on 10% PAGE (B and C) or 15% PAGE (D) and subjected to Western blotting using anti-GFP, anti-RI or anti-RII as indicated and blotted onto PVDF membranes. […]

[2] = test system: human peripheral blood T cells; assay: Flow cytometry of cell death/apoptosis in activated T cells; assay type: cell-based
Method: Flow cytometry. Negatively selected CD3^+ T cells cultured in flat-bottom, 96-well plates (Costar; 0.2×10^6 cells/well) were activated with OKT-3 (4 ng/μl) for […] at 37° C., crosslinked with F(ab′)2 fragments (39 μg/ml) and thereafter incubated with arginine-coupled peptides at 0-50 μM. For analyzing the DNA content, the cells were incubated further for 36-40 hours and thereafter washed in PBS, fixed in […], permeabilized in FACS Permeabilizing Solution (BD BioSciences, San Jose, Calif.) for 10 min and washed in PBS containing 1% BSA and 100 μg/ml RNase prior to being stained with propidium iodide (PI, Cat. No. 51-66211E BD Biosciences Pharmingen, San Diego, Calif., USA) (25 μg/ml) for 15 min 37° C. The cells were washed twice in PBS and fixed in 1% paraformaldehyde before flow cytometry (FACSCalibur, BD Biosciences, San Jose, Calif.) and subsequent analysis using FlowJo software (Tree Star, San Carlos, Calif.). For analyzing apoptosis and necrosis, the cells were incubated further for 18 hours and thereafter washed in PBS, fixed in 1% paraformaldehyde and washed with annexin binding buffer (Cat. No. 51-66121E, BD Biosciences) prior to being stained with Annexin V (3 μl to 50 μl volume, Cat. No. 556419, BD Biosciences Pharmingen) and PI (3 μg/ml) for 20 min on ice. The cells were washed twice in PBS and fixed in 1% paraformaldehyde before being analyzed on a flow cytometer (FACSCalibur, BD Biosciences, San Jose, Calif.) and analyzed using FlowJo software (Tree Star, San Carlos, Calif.).
To test whether MEME3-Arg11 induces cell death or apoptosis in human peripheral blood T cells, activated T cells treated with increasing doses of MEME3-Arg11 were analysed by forward scatter/sideward scatter (FSC/SSC) in a fluorescence-activated cell sorter (FACS). […] Apoptosis was also assessed by Annexin V^FITC labeling under the same experimental conditions. […] The effect of the peptides on cellular DNA content was also measured by flow cytometry after permeabilization of the fixed cells and PI-staining.
Cell death was also analysed by monitoring PS externalization by Annexin V binding and destruction of the cellular membrane by PI staining using FACS.

[3] = test system: Y1 adrenal cells; assay: Progesterone production in Y1 adrenal cells; assay type: cell-based, mouse; settings: Actinomycin D treated cells
Method: Mouse adrenocortical Y1 cells were obtained from ATCC (Cat. No. CCL-79) and maintained in DMEM/HAM'S F-12 (Cat. No. E15-813, PAA Laboratories GmbH, Pasching, Austria) supplemented with 100 μg/ml streptomycin, 100 U/ml penicillin and 10% (v/v) fetal calf serum in a humidified atmosphere of 5% CO2 and split by trypsination at less than 80% confluence.
Progesterone production and StAR protein level. Y1 cells were cultured overnight in 6-well plates at the density of 1.5×10^6 cells per well. To increase the basal level of StAR, the cells were pre-stimulated with 10 μM forskolin for 1 hour, washed twice with medium, before peptide loading. Thereafter, the cells were loaded with 50 μM of the arginine-coupled peptide for 5 hours before being treated with 5 μg/ml Actinomyocin D (Cat. No. A-9415, Sigma) for 30 min and stimulated with 10 μM forskolin (Cat. No. 344270, Calbiochem) or 10 IU/ml ACTH (Cat. No. A-6303, Sigma) for 12 hours. […] Progesterone in the cell medium was measured by using either Spectria Progesterone RIA (Cat. No. 68521, Orion Diagnostica, Espoo, Finland) or DELFIA progesterone kit (Cat. No. A066-101, PerkinElmer) following the conditions recommended by the manufacture. The cells were lysed and the StAR protein was analysed by western blotting and the level measured by densiometric analysis.

[4] = activated T cells, increasing doses

T1 sequence (P13861 whole entry, the tested form may be a part): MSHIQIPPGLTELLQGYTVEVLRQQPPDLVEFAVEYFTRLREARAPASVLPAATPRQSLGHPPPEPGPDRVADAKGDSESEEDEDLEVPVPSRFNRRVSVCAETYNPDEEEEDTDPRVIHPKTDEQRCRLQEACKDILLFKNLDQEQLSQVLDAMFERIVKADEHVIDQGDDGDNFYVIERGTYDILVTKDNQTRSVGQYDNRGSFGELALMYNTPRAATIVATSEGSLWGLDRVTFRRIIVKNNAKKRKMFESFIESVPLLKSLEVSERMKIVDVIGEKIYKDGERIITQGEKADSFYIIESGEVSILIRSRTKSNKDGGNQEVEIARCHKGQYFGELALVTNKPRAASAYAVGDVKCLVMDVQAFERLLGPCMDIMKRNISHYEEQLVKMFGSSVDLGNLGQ

CC[C@H](C)[C@H](NC(=O)[C@H](CCC(N)=O)NC(=O)[C@H](CC(=O)O)NC(=O)[C@H](C)NC(=O)[C@H](CC(C)C)NC(=O)[C@H](CCC(N)=O)NC(=O)[C@H](CC(N)=O)NC(=O)[C@H](C)NC(=O)[C@H](Cc1ccc(O)cc1)NC(=O)[C@H](CCC(N)=O)NC(=O)[C@H](CCC(=O)O)NC(=O)[C@@H](N)CC(C)C)C(=O)N[C@H](C(=O)N[C@@H](CCCCN)C(=O)N[C@@H](CCC(=O)O)C(=O)N[C@@H](C)C(=O)N[C@H](C(=O)N[C@@H](CCC(=O)O)C(=O)N[C@@H](CCCCNC(=O)c1ccc2c(c1)C(=O)OC21c2ccc(O)cc2Oc2cc(O)ccc21)C(N)=O)[C@@H](C)O)[C@@H](C)CC [MEME3]
co-precipitation with RII [1]: not with RII

LEQYANQLADQIIKEATERRRRRRRRRrr [MEME3-Arg11]
annexin V binding [2, 4]: no increase in annexin V binding, but rather a small decrease
morphological changes (FSC/SSC) [2, 4]: no morphological changes characteristic of apoptosis
late apoptotic cells (AV+/PI+) ([2]; overnight): No late apoptotic cells (AV+/PI+) were detected
DNA content (aneuploidity), PI-staining ([2]; permeabilized fixed cells): No change in DNA content
inhibition relative to that with mutated PKA phosphorylation site in StAR [3]: approximately 80%
reduction of progesterone production compared to SM3-Arg11 ([3]; forskolin): 60%
